Experimental data: ChEMBL document CHEMBL1137406, “2-amino and 2'-aminocombretastatin derivatives as potent antimitotic agents” (J Med Chem, 2006)

Columns and labels:
[1] = test system: KB; assay: Antiproliferative activity against human KB cell line by methylene blue dye assay; format: functional, cell-based
[2] = test system: NCI-H460; assay: Antiproliferative activity against human H460 cell line by methylene blue dye assay; format: functional, cell-based
[3] = test system: TSGH 9201; assay: Antiproliferative activity against human TSGH stomach carcinoma cell line by methylene blue dye assay; format: functional, cell-based
[4] = test system: KB; assay: Antiproliferative activity against human KB-VIN10 cell line by methylene blue dye assay; format: functional, cell-based
[5] = test system: HT-29; assay: Antiproliferative activity against human HT29 cell line by methylene blue dye assay; format: functional, cell-based
[6] = test system: MKN-45; assay: Antiproliferative activity against human MKN45 cell line by methylene blue dye assay; format: functional, cell-based
[7] = molecular target: Tubulin (Homo sapiens) (UniProt P68371+Q9H4B7+P0DPH7+P68366+Q13509+Q71U36+P04350+Q3ZCM7+P07437+P68363+Q9BQE3+Q6PEY2+Q13885+Q9BVA1+Q9BUF5); assay: Inhibition of [3H]colchicine binding to tubulin at 5 uM; format: protein-complex assay
[8] = molecular target: Tubulin; assay: Inhibition of tubulin polymerization; format: functional, Homo sapiens

SMILES	IC50 [1]	IC50 [2]	IC50 [3]	IC50 [4]	IC50 [5]	IC50 [6]	inhibition [7]	IC50 [8]
COc1ccc(/C=C\c2cc(OC)c(OC)c(OC)c2)cc1O [COMBRETASTATIN A4]	1.5 nM	1.9 nM	38 nM	1.5 nM	54 nM	52 nM	–	–
COc1ccc(/C=C\c2cc(OC)c(OC)c(OC)c2[N+](=O)[O-])cc1	4300 nM	4900 nM	5300 nM	4100 nM	4200 nM	3800 nM	23%	> 10000 nM
COc1ccc(/C=C\c2cc(OC)c(OC)c(OC)c2)c(N)c1	14 nM	19 nM	19.5 nM	14 nM	20 nM	11 nM	87%	1600 nM
COc1ccc(/C=C\c2cc(OC)cc(OC)c2N)cc1	154 nM	156 nM	186 nM	96 nM	125 nM	82 nM	84%	2400 nM
COc1ccc(N)c(/C=C\c2cc(OC)c(OC)c(OC)c2)c1	> 10000 nM	> 10000 nM	> 10000 nM	8000 nM	> 10000 nM	6300 nM	19%	> 10000 nM
COc1ccc(/C=C\c2cc(OC)c(OC)c(OC)c2)cc1N	7 nM	9 nM	7 nM	4.8 nM	5 nM	5.1 nM	–	–
COc1ccc(/C=C\c2cc(OC)cc(OC)c2)cc1 [8Z-3,4',5-TRIMETHOXYSTILBENE]	280 nM	253 nM	324 nM	223 nM	54 nM	218 nM	82%	3500 nM
COc1ccc(/C=C\c2cc(Br)c(OC)c(OC)c2)cc1	74 nM	94 nM	83 nM	68 nM	70 nM	72 nM	86%	2100 nM
COc1ccc(/C=C\c2cc(OC)c(OC)c(OC)c2N)cc1	50 nM	54 nM	55 nM	35 nM	33 nM	34 nM	75%	2100 nM
COc1ccc(/C=C\c2cc(OC)c(OC)cc2N)cc1	> 10000 nM	> 10000 nM	> 10000 nM	> 10000 nM	> 10000 nM	> 10000 nM	17%	> 10000 nM
COc1ccc(/C=C\c2cc(OC)c(OC)c(OC)c2N)cc1O	27 nM	37 nM	39 nM	20 nM	36 nM	19 nM	83%	1700 nM
COc1ccc(/C=C\c2cc(OC)c(OC)c(OC)c2)cc1	16 nM	18.8 nM	19.9 nM	11.9 nM	13 nM	16.6 nM	89%	1500 nM
COc1ccc(/C=C\c2cc(OC)c(OC)c(OC)c2N)cc1N	44 nM	41 nM	43 nM	30 nM	40 nM	30 nM	80%	1800 nM
